Here are results for two compounds from patent US20250281424A1 (New York Blood Center, Inc, priority 2020, published 2025).

A word on the IC50: it is the concentration needed to halve the response being measured. As a reminder, the EC50 is the concentration giving half of the maximal effect.

The target of data set [1] is P450 2C19 (Homo sapiens, UniProt P33261). The experiment in a line: P450 inhibition 2C19. Format: in vitro ADME. As for the experimental part: (§1) Certain exemplified compounds were examined for ADMET (absorption, distribution, metabolism, excretion and toxicity) profiling using conventional assays with the results shown in the Tables 3A-3C below.
Chain of P450 2C19 (P33261 whole entry): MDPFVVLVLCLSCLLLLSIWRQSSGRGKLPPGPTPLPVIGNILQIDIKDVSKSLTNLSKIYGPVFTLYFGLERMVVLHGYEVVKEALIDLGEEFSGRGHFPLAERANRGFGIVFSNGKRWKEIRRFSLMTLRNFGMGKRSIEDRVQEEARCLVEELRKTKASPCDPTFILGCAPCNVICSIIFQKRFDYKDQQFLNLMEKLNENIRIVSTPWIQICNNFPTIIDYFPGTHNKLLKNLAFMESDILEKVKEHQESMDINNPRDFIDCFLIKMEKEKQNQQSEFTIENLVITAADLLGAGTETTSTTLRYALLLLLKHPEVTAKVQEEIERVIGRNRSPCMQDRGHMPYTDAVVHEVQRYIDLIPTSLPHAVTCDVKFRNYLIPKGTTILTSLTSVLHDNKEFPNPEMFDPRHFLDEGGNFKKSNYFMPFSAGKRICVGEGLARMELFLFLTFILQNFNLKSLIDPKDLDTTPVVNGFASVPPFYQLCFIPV
(§2) Examples 1 and 3 were evaluated as inhibitors of the five P450s that are the source of most DDI issues. […] The tested compounds meet drug property criteria for IV administration.

A short description of data set [2]: Cytotoxicity HepG2 (MTS reduction). Format: cell-based. The note with it: human, HepG2 cells; read-out: Cytotox HepG2 EC50. A general note: Tetrazolium assays rely on reduction of a dye to a coloured formazan, in cell work by metabolically active cells.
Data set [3] is described as follows: Cytotoxicity NIH3T3 (MTS reduction). Format: cell-based. To be noted: mouse, NIH3T3 cells, 1 hour exposure in the absence of serum, N = 3, read-out: Cytotox NIH3T3 EC50.
Data set [4] deals with P450 2C9 (Homo sapiens, UniProt P11712). In words: P450 inhibition 2C9. Format: in vitro ADME. As for the experimental part:
as §1, §2

In data set [5] the target is P450 3A4 (midazolam) (Homo sapiens, UniProt P08684). The experiment in a line: P450 inhibition 3A4 (midazolam). Format: in vitro ADME. As for the experimental part:
as §1, §2

Data set [6] has as its target T1, P450 1A2 (Homo sapiens, UniProt P05177).
T1 sequence (P05177 1-516): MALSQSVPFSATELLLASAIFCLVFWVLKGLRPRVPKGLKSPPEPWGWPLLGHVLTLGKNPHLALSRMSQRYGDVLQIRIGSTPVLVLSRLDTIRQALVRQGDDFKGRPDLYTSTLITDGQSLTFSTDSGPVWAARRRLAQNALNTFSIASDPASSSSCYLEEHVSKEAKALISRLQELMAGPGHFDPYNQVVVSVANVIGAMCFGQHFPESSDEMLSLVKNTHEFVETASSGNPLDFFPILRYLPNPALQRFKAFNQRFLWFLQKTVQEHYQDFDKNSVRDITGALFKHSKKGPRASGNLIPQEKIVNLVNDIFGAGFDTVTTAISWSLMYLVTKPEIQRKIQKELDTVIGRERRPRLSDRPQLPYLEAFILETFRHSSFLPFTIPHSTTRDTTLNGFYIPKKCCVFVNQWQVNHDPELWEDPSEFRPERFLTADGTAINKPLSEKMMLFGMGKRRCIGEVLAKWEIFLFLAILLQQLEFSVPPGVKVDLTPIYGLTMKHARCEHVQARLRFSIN
In words: P450 inhibition 1A2. Format: in vitro ADME. As for the experimental part: as §1, §2

For data set [7], the target named is human Ether-à-go-go-Related Gene (hERG) (Homo sapiens, UniProt Q12809). The experiment in a line: hERG patch clamp assay. Format: in vitro ADME. The note with it: for hERG inhibition: 30 μM concentration, patch clamp. As for the experimental part:
as §1, §2
In general terms: hERG is a cardiac potassium channel; its block is linked to QT prolongation.

Molecules are shown by their SMILES. Like-named read-outs stand apart in the source and are kept apart here.

Chain of P450 3A4 (midazolam) (P08684 whole entry): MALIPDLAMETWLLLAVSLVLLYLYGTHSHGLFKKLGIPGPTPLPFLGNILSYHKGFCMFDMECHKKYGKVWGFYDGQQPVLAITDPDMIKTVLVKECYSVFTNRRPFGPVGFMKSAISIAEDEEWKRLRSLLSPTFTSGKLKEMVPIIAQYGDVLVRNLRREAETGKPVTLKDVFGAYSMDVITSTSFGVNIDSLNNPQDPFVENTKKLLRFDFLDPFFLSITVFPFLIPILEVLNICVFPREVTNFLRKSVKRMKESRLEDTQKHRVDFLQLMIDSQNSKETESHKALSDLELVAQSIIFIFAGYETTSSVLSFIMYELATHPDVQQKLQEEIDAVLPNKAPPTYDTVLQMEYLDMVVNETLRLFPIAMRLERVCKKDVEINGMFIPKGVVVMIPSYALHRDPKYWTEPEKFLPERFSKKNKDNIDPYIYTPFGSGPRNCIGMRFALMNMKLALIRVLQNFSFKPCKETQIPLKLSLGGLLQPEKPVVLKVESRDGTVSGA
Chain of P450 2C9 (P11712 whole entry): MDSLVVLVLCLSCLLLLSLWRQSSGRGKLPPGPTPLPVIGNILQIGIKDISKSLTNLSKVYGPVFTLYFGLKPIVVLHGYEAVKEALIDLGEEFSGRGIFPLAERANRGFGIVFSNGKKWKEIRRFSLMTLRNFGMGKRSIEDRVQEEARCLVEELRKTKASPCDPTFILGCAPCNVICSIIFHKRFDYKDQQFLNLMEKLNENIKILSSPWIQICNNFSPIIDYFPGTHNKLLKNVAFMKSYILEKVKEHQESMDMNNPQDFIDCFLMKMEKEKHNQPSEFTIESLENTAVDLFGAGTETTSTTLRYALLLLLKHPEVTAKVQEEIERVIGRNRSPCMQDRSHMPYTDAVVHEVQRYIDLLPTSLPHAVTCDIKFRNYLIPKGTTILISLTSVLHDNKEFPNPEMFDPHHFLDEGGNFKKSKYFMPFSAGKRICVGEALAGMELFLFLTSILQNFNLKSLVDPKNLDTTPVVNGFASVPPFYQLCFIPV
Chain of human Ether-à-go-go-Related Gene (hERG) (Q12809 whole entry): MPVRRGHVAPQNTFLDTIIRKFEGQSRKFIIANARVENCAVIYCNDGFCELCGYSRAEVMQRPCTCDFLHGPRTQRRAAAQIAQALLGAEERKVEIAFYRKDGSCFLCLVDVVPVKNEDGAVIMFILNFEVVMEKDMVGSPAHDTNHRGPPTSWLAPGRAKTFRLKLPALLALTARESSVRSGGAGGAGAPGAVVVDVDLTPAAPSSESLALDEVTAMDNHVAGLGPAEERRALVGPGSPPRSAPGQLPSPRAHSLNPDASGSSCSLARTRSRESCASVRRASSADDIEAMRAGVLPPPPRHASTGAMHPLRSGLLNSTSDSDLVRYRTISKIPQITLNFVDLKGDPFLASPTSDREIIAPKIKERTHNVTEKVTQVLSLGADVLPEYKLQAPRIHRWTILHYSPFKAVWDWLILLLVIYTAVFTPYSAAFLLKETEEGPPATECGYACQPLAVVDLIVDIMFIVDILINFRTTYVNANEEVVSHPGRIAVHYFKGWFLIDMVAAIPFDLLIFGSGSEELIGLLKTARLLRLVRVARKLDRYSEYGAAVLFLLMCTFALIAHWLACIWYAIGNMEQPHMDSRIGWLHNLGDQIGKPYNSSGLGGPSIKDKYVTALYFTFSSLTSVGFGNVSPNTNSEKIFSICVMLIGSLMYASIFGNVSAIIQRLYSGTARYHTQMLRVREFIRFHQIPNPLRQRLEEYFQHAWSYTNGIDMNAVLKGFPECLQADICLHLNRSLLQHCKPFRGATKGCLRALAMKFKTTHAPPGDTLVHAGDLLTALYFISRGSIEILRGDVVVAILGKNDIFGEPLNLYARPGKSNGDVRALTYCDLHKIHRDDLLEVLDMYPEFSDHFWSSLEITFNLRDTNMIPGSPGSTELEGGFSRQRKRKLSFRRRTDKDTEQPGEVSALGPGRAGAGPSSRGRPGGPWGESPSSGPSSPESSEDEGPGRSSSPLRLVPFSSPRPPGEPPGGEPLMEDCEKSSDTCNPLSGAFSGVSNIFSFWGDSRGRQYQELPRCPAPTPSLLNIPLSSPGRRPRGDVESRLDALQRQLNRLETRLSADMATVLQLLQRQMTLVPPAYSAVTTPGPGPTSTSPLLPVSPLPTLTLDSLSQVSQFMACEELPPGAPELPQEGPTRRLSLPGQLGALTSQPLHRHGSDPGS

For `CC(=O)C1C(=O)c2ccc(C(=O)c3ccc4c(c3)C(=O)C(C(C)=O)C4=O)cc2C1=O` (centres unmarked) [Example 1, 5,5′-carbonylbis(2-acetyl-1h-indene-1,3(2h)-dione)], in data set [1], the half-inhibitory concentration (IC50) is greater than 100 µM and the “inhibition of P450 2C19” value is listed as “no inhibition”. Also, the half-maximal effective concentration (EC50) in data set [2] was greater than 1000 µg/mL. The 50% effective concentration (EC50) at 1 h in data set [3] is greater than 1000 µg/mL. In addition, in data set [4], the midpoint of inhibition, the IC50, lay at 31.9 µM and the “inhibition of P450 2C9” value is recorded as “only moderate inhibition”. Further, in data set [5], the IC50 was greater than 100 µM and the “inhibition of P450 3A4 midazolam” value is listed as “no inhibition”. Also, in data set [6], the IC50 was found to be 46.7 µM and the “inhibition of P450 1A2” value is on record as “moderate inhibition”. Also, in data set [7], the IC50 is greater than 30 µM and the “hERG inhibition” value is “no significant inhibition”.
Turning to `CCOC(=O)C1C(=O)c2ccc(C(=O)c3ccc4c(c3)C(=O)C(C(=O)OCC)C4=O)cc2C1=O` (centres unmarked) [Example 3, diethyl 5,5′-carbonylbis(1,3-dioxo-2,3-dihydro-1h-indene-2-carboxylate)], in data set [1], the “inhibition of P450 2C19” value is given as “no inhibition”. For the same compound, the IC50 is greater than 100 µM in data set [1] (read-out: P450 Inhibition IC50 2C19); 16.7 µM in data set [4] (read-out: P450 Inhibition IC50 2C9); greater than 100 µM in data set [5] (midazolam, read-out: P450 Inhibition IC50 3A4 (midazolam)); greater than 100 µM in data set [6]; greater than 30 µM in data set [7] (read-out: hERG IC50). The EC50 in data set [2] was greater than 500 µg/mL. In data set [3], the EC50 at 1 h is greater than 500 µg/mL. In addition, in data set [4], the “inhibition of P450 2C9” value was “only moderate inhibition”. Moreover, the “inhibition of P450 3A4 midazolam” value in data set [5] is “no inhibition”. Besides, the “hERG inhibition” value in data set [7] was “no significant inhibition”.
